Reference: patent US20250313547A1, “CEREBLON LIGANDS AND BIFUNCTIONAL COMPOUNDS COMPRISING THE SAME” (Arvinas Operations, Inc., priority 2017, published 2025)

Experiments:
[1] = biological target: T1, Estrogen receptor-alpha (ERα) (Homo sapiens (Human), UniProt P03372); test: ERα degradation assay using In-Cell Western in MCF7 cells; format: cell-based; settings: read-out: ER degradation DC50
Procedure: 3. Estrogen Receptor-Alpha (ERα) Degradation Assay Using in-Cell Western™ Assay for Table 5.
Degradation of ERα by claimed compounds were determined in MCF7 cells using an In-Cell Western™ assay. Briefly, MCF7 cells were plated in 96-well plates (2000 cells per well in 100 μl media) and incubated at 37° C. under an atmosphere of 5% CO2 in a humidified incubator overnight. One-hundred (100) μl of media containing test compound (at 2× concentration) was added to the appropriate wells to provide 11 serially decreasing concentrations (top final concentration, 1 μM then 3-fold less for the next 10 concentrations); a vehicle control (DMSO) was also added for each compound. For each experiment, all compounds were assayed in duplicate plates. Cells were then incubated for 3 or 5 days in the above-mentioned environment. The assay was terminated by removal of media, a single wash with ice-cold PBS and the addition of 50 μl paraformaldehyde (PFA: 4% in PBS). After 15 minutes in PFA at room temperature, the cells were permeabilized in Tris-phosphate-buffered saline with Tween (0.1%) (TBST) supplemented with Triton X-100 (0.5%) for 15 minutes. Cells were then blocked in BSA (TBST with BSA, 3%) for one hour. […] The cells were incubated overnight at 4° C. The cells were then washed thrice with TBST at room temperature and then incubated with anti-rabbit and anti-mouse fluorescently-labelled secondary antibodies (IRDye®; LI-COR; Lincoln, NE) in LI-COR blocking buffer (Catalog #927-50000) for one hour at room temperature. Following 3 washes with TBST, the buffer was removed and the plates were read on an Odyssey® infrared imaging system (LI-COR®; Lincoln, NE) at 700 nm and 800 nm. Using commercial software (ImageStudio™; LI-COR, Lincoln, NE), the staining intensity for ERα and tubulin in each well was quantified and exported for analysis. For each data point, ERα intensity was normalized to tubulin intensity and for each compound all normalized intensity values were normalized to the vehicle control. DC50 and Dmax values were determined following a 4-parameter IC50 curve fit using ACAS dose response module (McNeil & Co Inc.).

[2] = biological target: immobilized CRBN protein (cereblon) (Homo sapiens (Human), UniProt Q96SW2); test: Surface plasmon resonance (SPR) KD determination on immobilized cereblon; settings: average of at least N=2, 1:1 fit, read-out: KD Binding to immobilized CRBN protein in SPR assay
Procedure: The surface plasmon resonance (SPR) experiments were conducted on a Biacore3000 (GE Healthcare). Myc-tagged cereblon was immobilized on a carboxymethylated dextran surface (CM5) amine coupled to anti-Myc antibody to recognize the Myc tag. His-tagged cereblon protein was immobilized on a carboxymethylated dextran surface with nitriloacetic acid (NTA), taking advantage of NTA/Ni^2+ chelation. The prepared surface was allowed to equilibrate over three hours in running buffer (10 mM HEPES buffer @pH 7.4, 150 mM NaCl, 0.005% P20,2% DMSO).
All compounds were prepared in 100% DMSO stock plates with a top concentration of 5 mM in a 3× serial dilution. Compounds were transferred from the stock plate to the assay plate and diluted into running buffer containing no DMSO. All compounds were run as a six-concentration series with a final assay top concentration of 100 μM.
Data analysis was performed in Scrubber 2 (BioLogic software, Campbell, Australia). Blanks were subtracted and data was corrected for DMSO against a standard DMSO curve.

[3] = biological target: T1, Estrogen receptor-alpha (ERα); test: ERα degradation assay in T47D cells; format: cell-based; settings: 5 day incubation, read-out: ER degradation DC50

Chain of immobilized CRBN protein (cereblon) (Q96SW2 whole entry): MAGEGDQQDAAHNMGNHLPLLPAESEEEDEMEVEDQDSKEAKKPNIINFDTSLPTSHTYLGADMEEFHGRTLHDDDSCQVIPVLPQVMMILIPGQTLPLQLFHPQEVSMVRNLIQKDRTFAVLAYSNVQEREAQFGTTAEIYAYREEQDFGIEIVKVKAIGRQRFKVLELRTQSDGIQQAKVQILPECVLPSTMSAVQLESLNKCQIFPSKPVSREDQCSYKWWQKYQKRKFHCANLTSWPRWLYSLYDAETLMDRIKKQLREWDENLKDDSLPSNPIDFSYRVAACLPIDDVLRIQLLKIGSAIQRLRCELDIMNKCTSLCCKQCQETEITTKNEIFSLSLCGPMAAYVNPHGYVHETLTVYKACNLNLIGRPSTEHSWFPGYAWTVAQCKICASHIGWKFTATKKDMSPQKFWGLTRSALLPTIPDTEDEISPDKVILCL
T1 sequence (P03372 whole entry): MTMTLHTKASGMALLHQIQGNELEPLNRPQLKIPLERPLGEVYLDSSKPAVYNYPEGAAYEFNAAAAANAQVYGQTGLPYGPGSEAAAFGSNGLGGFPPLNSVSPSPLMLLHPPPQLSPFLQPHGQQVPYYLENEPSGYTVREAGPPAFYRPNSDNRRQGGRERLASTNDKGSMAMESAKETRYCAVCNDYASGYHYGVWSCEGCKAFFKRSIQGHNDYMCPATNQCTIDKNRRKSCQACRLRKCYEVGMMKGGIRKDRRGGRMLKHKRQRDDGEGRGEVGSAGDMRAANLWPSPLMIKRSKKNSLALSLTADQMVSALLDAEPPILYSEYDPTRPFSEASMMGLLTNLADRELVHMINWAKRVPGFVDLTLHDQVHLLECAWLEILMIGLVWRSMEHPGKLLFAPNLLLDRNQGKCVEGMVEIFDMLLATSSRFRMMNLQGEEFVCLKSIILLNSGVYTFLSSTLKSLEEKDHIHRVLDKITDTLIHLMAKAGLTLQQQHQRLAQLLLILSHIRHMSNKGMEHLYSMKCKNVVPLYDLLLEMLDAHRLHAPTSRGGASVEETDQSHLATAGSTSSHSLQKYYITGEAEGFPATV

Row | SMILES | Kd [2] [µM] | also measured
1 | O=C1CCC(NC(=O)c2ccc(N3CCN(CCCCCOc4ccc([C@@H]5c6ccc(O)cc6CC[C@@H]5c5ccccc5)cc4)CC3)cn2)C(=O)N1 (mixture of isomers) [PROTAC-91, rac-N-(2,6-dioxopiperidin-3-yl)-5-(4-(5-(4-((1R,2S)-6-hydroxy-2-phenyl-1,2,3,4-tetrahydronaphthalen-1-yl)phenoxy)pentyl)piperazin-1-yl)picolinamide] |  | DC50 ([1]; 5 day incubation): 0.001 to 0.01 µM
2 | O=C1CCC(n2cnc(N3CCN(CCCCCOc4ccc([C@@H]5c6ccc(O)cc6CC[C@@H]5c5ccccc5)cc4)CC3)cc2=O)C(=O)N1 (mixture of isomers) [PROTAC-101, rac-3-(4-(4-(5-(4-((1R,2S)-6-hydroxy-2-phenyl-1,2,3,4-tetrahydronaphthalen-1-yl)phenoxy)pentyl)piperazin-1-yl)-6-oxopyrimidin-1(6H)-yl)piperidine-2,6-dione] |  | DC50 ([1]; 5 day incubation): 0.001 to 0.01 µM
3 | O=C1CCC(n2cc(-c3ccc(N4CCN(CCCOc5ccc([C@@H]6c7ccc(O)cc7CC[C@@H]6c6ccccc6)cc5)CC4)cc3)cn2)C(=O)N1 (mixture of isomers) [PROTAC-110, rac-3-(4-(4-(4-(3-(4-((1R,2S)-6-hydroxy-2-phenyl-1,2,3,4-tetrahydronaphthalen-1-yl)phenoxy)propyl)piperazin-1-yl)phenyl)-1H-pyrazol-1-yl)piperidine-2,6-dione] |  | DC50 ([1]; 5 day incubation): < 0.001 µM
4 | O=C1CCC(N2C(=O)c3cc(F)c(NCCCCCCO)cc3C2=O)C(=O)N1 (centres unmarked) [compound 3] | 10 to 100 | 
5 | O=C1CCC(N2C(=O)c3c(F)ccc(F)c3C2=O)C(=O)N1 (centres unmarked) [compound 8] | > 100 | 
6 | O=C1c2cccc(F)c2C(=O)N1c1ccc(C(F)(F)F)[nH]c1=O [compound 7] | > 100 | 
7 | O=C1CCC(n2ncc(N3CCN(CC4CCN(c5ccc([C@@H]6c7ccc(O)cc7CC[C@@H]6c6ccccc6)cc5)CC4)CC3)cc2=O)C(=O)N1 (stereo partly drawn) [PROTAC-102, 3-[4-[4-[[1-[4-[(1R,2S)-6-hydroxy-2-phenyl-tetralin-1-yl]phenyl]-4-piperidyl]methyl]piperazin-1-yl]-6-oxo-pyridazin-1-yl]piperidine-2,6-dione] |  | DC50 ([1]; 5 day incubation): 0.001 to 0.01 µM
8 | O=CN1CCC(N2C(=O)c3ccccc3C2=O)C(=O)N1 (centres unmarked) [compound 19] | > 100 | 
9 | Cc1nc2c(OCCN3CCN(CCOc4ccc(Oc5c(-c6ccc(Br)cc6)sc6cc(O)ccc56)cc4)CC3)cccc2c(=O)n1C1CCC(=O)NC1=O (centres unmarked) [PROTAC-108, 3-(8-(2-(4-(2-(4-((2-(4-bromophenyl)-6-hydroxybenzo[b]thiophen-3-yl)oxy)phenoxy)ethyl)piperazin-1-yl)ethoxy)-2-methyl-4-oxoquinazolin-3(4H)-yl)piperidine-2,6-dione] |  | DC50 ([1]; 3 day incubation): ≥ 0.1 µM
10 | O=C1CCC(N2Cc3cc(NCCCCCCO)c(F)cc3C2=O)C(=O)N1 (centres unmarked) [compound 5] | 10 to 100 | 
11 | O=C1CCC(n2ncc(N3CCN(CCCCCOc4ccc([C@@H]5c6ccc(O)cc6CC[C@@H]5c5ccccc5)cc4)CC3)cc2=O)C(=O)N1 (mixture of isomers) [PROTAC-100, rac-3-(4-(4-(5-(4-((1R,2S)-6-hydroxy-2-phenyl-1,2,3,4-tetrahydronaphthalen-1-yl)phenoxy)pentyl)piperazin-1-yl)-6-oxopyridazin-1(6H)-yl)piperidine-2,6-dione] |  | DC50 ([1]; 5 day incubation): 0.001 to 0.01 µM
12 | CN1CC(N2C(=O)c3ccccc3C2=O)C(=O)NC1=O (centres unmarked) [compound 18] | > 100 | 
13 | CNc1ccccc1C(=O)NCCn1ccc(=O)[nH]c1=O [compound 12] | > 100 | 
14 | O=C1CCC(N2CC(Oc3cccc(C4CCN(CCCCOc5ccc([C@@H]6c7ccc(O)cc7CC[C@@H]6c6ccccc6)cc5)CC4)c3)=CC2=O)C(=O)N1 (mixture of isomers) [PROTAC-104, rac-3-(4-(3-(1-(4-(4-((1R,2S)-6-hydroxy-2-phenyl-1,2,3,4-tetrahydronaphthalen-1-yl)phenoxy)butyl)piperidin-4-yl)phenoxy)-2-oxo-2,5-dihydro-1H-pyrrol-1-yl)piperidine-2,6-dione] |  | DC50 [3]: ≥ 0.1 µM
15 | O=C1CCC(N2C(=O)c3ccc(F)c(F)c3C2=O)C(=O)N1 (centres unmarked) [compound 9] | 1 to 10 | 
16 | CNc1ccccc1C(=O)NCCN1CCC(=O)NC1=O [compound 10] | > 100 | 
17 | O=C1CCC(N2Cc3c(ccc(F)c3OCCCCCCO)C2=O)C(=O)N1 (centres unmarked) [compound 4] | 10 to 100 | 
18 | O=C1CCC(N2CC(Oc3cccc(C4CCN(CCCCOc5ccc([C@H]6c7ccc(O)cc7CC[C@H]6c6ccccc6)cc5)CC4)c3)=CC2=O)C(=O)N1 (mixture of isomers) [PROTAC-109, rac-3-(4-(3-(1-(4-(4-((1R,2S)-6-hydroxy-2-phenyl-1,2,3,4-tetrahydronaphthalen-1-yl)phenoxy)butyl)piperidin-4-yl)phenoxy)-2-oxo-2,5-dihydro-1H-pyrrol-1-yl)piperidine-2,6-dione] |  | DC50 [3]: ≥ 0.1 µM
19 | O=C1CCC(N2CC(Oc3cccc(C4CCN(CCCOc5ccc([C@@H]6c7ccc(O)cc7CC[C@@H]6c6ccccc6)cc5)CC4)c3)=CC2=O)C(=O)N1 (stereo partly drawn) [PROTAC-106, 3-(4-(3-(1-(3-(4-((1R,2S)-6-hydroxy-2-phenyl-1,2,3,4-tetrahydronaphthalen-1-yl)phenoxy)propyl)piperidin-4-yl)phenoxy)-2-oxo-2,5-dihydro-1H-pyrrol-1-yl)piperidine-2,6-dione] |  | DC50 [3]: 0.001 to 0.01 µM
20 | O=C1CCC(N2CC(c3ccc(N4CCN(CC5CCN(c6ccc([C@@H]7c8ccc(O)cc8CC[C@@H]7c7ccccc7)cc6)CC5)CC4)cc3)=CC2=O)C(=O)N1 (stereo partly drawn) [PROTAC-89, 3-[3-[4-[4-[[1-[4-[(1R,2S)-6-hydroxy-2-phenyl-tetralin-1-yl]phenyl]-4-piperidyl]methyl]piperazin-1-yl]phenyl]-5-oxo-2H-pyrrol-1-yl]piperidine-2,6-dione] |  | DC50 ([1]; 5 day incubation): 0.001 to 0.01 µM
21 | Cc1nc2c(NCCN3CCN(CCOc4ccc(Oc5c(-c6ccc(Br)cc6)sc6cc(O)ccc56)cc4)CC3)cccc2c(=O)n1C1CCC(=O)NC1=O (centres unmarked) [PROTAC-107, 3-(8-((2-(4-(2-(4-((2-(4-bromophenyl)-6-hydroxybenzo[b]thiophen-3-yl)oxy)phenoxy)ethyl)piperazin-1-yl)ethyl)amino)-2-methyl-4-oxoquinazolin-3(4H)-yl)piperidine-2,6-dione] |  | DC50 ([1]; 3 day incubation): ≥ 0.1 µM
22 | O=C1CCC(N2C(=O)c3ccccc3C2=O)C2(COC2)N1 (centres unmarked) [compound 14] | > 100 | 
23 | CN(C(=O)c1ccc(N2CCN(CCCCCOc3ccc([C@@H]4c5ccc(O)cc5CC[C@@H]4c4ccccc4)cc3)CC2)cc1)C1CCC(=O)NC1=O (mixture of isomers) [PROTAC-90, rac-N-(2,6-dioxopiperidin-3-yl)-4-(4-(5-(4-((1R,2S)-6-hydroxy-2-phenyl-1,2,3,4-tetrahydronaphthalen-1-yl)phenoxy)pentyl)piperazin-1-yl)-N-methylbenzamide] |  | DC50 ([1]; 5 day incubation): 0.001 to 0.01 µM

More lines, main results first:

Row | Kd [2] [µM] | SMILES | also measured
24 | > 100 | CC1(C)C(=O)NC(=O)N1C1CC2CCCCN2C1=O (centres unmarked) [compound 22] | 
25 | > 100 | Cc1cn(-c2cccnc2)c(=O)[nH]c1=O [compound 39] | 
26 | > 100 | O=C1CN(C2Cc3ccccc3C2=O)C(=O)N1 (centres unmarked) [compound 35] | 
27 | 1 to 10 | CCOc1cnn(C2CCC(=O)NC2=O)c(=O)c1 (centres unmarked) [compound 30] | 
28 | > 100 | Cc1cc(C(N)=O)[nH]c(=O)c1N1C(=O)c2ccccc2C1=O [compound 41] | 
29 | > 100 | O=C1NCC(N2C(=O)c3ccccc3C2=O)C(=O)N1 (centres unmarked) [compound 25] | 
30 | > 100 | O=c1ccn(-c2cnc3ccccc3c2)c(=O)[nH]1 [compound 33] | 
31 | > 100 | O=C1CCC(N2Cc3ccccc3C2=O)C2(COC2)N1 (centres unmarked) [compound 20] | 
32 | 10 to 100 | Cc1cc(C#N)[nH]c(=O)c1N1C(=O)c2ccccc2C1=O [compound 43] | 
33 | 10 to 100 | Cc1c(-n2ccc(=O)[nH]c2=O)cnc2ccccc12 [compound 28] | 
34 | 10 to 100 | CCOc1cc(=O)n(C2CCC(=O)NC2=O)cn1 (centres unmarked) [compound 29] | 
35 | > 100 | Cc1c(N2CCC(=O)NC2=O)cnc2ccccc12 [compound 27] | 
36 | > 100 | NC(=O)c1ccc(N2C(=O)c3ccccc3C2=O)c(=O)[nH]1 [compound 42] | 
37 | > 100 | O=C1NC(=O)C(N2C(=O)c3cccc(F)c3C2=O)N1 (centres unmarked) [compound 24] | 
38 | > 100 | N#Cc1cn(-c2cccnc2)c(=O)[nH]c1=O [compound 38] | 
